Source: paper PMC8762250, “Identification of Novel Chemical Scaffolds that Inhibit the Growth of Mycobacterium tuberculosis in Macrophages” (Frontiers in Pharmacology, 2022)
Read-outs that look alike come from different tables or passages of the source. Marks after values point to notes of the source that are not given here.

Columns and labels:
[1] = HepG2 cytotoxicity (CellTiter-Glo, 72 h); format: cell-based, human; settings: human
Method: (§1) Cytotoxicity against HepG2 cells was measured after 72 h. Cells were seeded in 384-well plates at 1,800 cells per well. Compounds were added as a 10-point three-fold serial dilution after 24 h (final assay concentration of 1% DMSO). CellTiter-Glo® reagent (Promega) was added and relative luminescence units (RLU) measured. Data were normalized to the DMSO controls. Curves were fitted using the Levenberg–Marquardt algorithm; TC50 was calculated as the compound concentration required to reduce cell viability by 50%.
(§2) We further evaluated cytotoxicity using the HepG2 cell line cultured with either glucose or galactose in the medium (Table 2). HepG2 cells cultured with galactose rely on mitochondrial oxidative phosphorylation rather than glycolysis which increases their susceptibility to mitochondrial toxicants allowing us to identify compounds with mitochondrial toxicity ([Kamalian et al., 2015]).

RAW264.7 cells = experiment: Macrophage viability in the same high content assay; settings: for Intracellular RAW TC50 / Intracellular activity Cytotoxicity TC50: infected RAW264.7 macrophages; for Intracellular RAW TC50: SAR tables 4-8; for Intracellular activity Cytotoxicity TC50: 72 h
M. tuberculosis [2] = experiment: Minimum inhibitory concentration in liquid medium (axenic culture); format: cell-based, Mycobacterium tuberculosis; settings: Mycobacterium tuberculosis; for IC50: read-out: Anti-tubercular activity in axenic culture IC50
M. tuberculosis [3] = experiment: High content assay of intracellular M. tuberculosis growth in infected RAW264.7 macrophages; format: cell-based, Mycobacterium tuberculosis H37Rv-LP
Method: Compounds were obtained in 384-well plates as 10 mM DMSO stock solutions and tested as described ([Manning et al., 2017]). Briefly, assay plates were prepared in clear bottom, black 384-well plates with 30 μl cRPMI and 0.6 μl compound in columns 3–22 (final concentration of 10 μM compound, 1% DMSO). […] INH and STA were also included in dose response on each plate. RAW264.7 cells were infected with M. tuberculosis DREAM8 as described ([Manning et al., 2017]) at an MOI of 1 for 24 h and extracellular bacteria removed by washing. Cells were recovered using Accumax, harvested, washed and resuspended in serum-free RPMI; 30 μl of infected cells were dispensed into each well at 3,300 cells/well. Plates were incubated for 72 h, 10 μl of 5X SYBR Green I was added and plates were imaged with an ImageXpress Micro High Content Screening System (Molecular Devices) using a ×4 objective and FITC and Texas Red channels. MetaXpress was used to analyze images. The integrated intensity of M. tuberculosis or macrophages was calculated for each well. Growth inhibition was calculated for each test well by normalizing to the average integrated intensity of the DMSO control wells. IC50 was calculated as the compound concentration required to reduce bacterial growth by 50%. TC50 was calculated as the compound concentration required to reduce macrophage viability by 50%.

HepG2 cells = experiment: HepG2 cytotoxicity (CellTiter-Glo, 72 h); format: cell-based, human; settings: for HepG2 cytotoxicity TC50 Galactose / HepG2 cytotoxicity TC50 Glucose: human, 72 h
Method: as §1, §2

[4] = HepG2 cytotoxicity IC50 Galactose
[5] = HepG2 cytotoxicity IC50 Glucose
[6] = axenic culture, SAR tables 4-8, read-out: Extracellular IC90
[7] = Mycobacterium tuberculosis, RAW264.7, in RAW264.7 macrophages, SAR tables 4-8, read-out: Intracellular Mtb IC50
[8] = 120 h, extracellular, 5 days, OD590
[9] = 120 h, extracellular, 5 days, OD590, read-out: Anti-tubercular activity in axenic culture IC90
[10] = Mycobacterium tuberculosis, RAW264.7, 72 h, M. tuberculosis in RAW264.7 cells, MOI 1, 72 h, read-out: Intracellular activity Anti-tubercular activity IC50

Structure (SMILES) | IC50 at 72 h [1, 4] [µM] | IC50 at 72 h [1, 5] [µM] | Intracellular RAW TC50 (RAW264.7 cells) | IC90 (M. tuberculosis [2]; [6]) [µM] | activity against intracellular M. tuberculosis (M. tuberculosis [3]) | IC50 (M. tuberculosis [3]; [7]) [µM] | HepG2 cytotoxicity TC50 Galactose (HepG2 cells) | HepG2 cytotoxicity TC50 Glucose (HepG2 cells) | Intracellular activity Cytotoxicity TC50 (RAW264.7 cells) | IC50 (M. tuberculosis [2]; [8]) [µM] | IC90 (M. tuberculosis [2]; [9]) [µM] | IC50 (M. tuberculosis [3]; [10]) [µM] | selectivity index (TC50/IC50) (RAW264.7 cells; macrophage TC50 / intracellular IC50) | IC50 (M. tuberculosis [3]; in RAW264.7 macrophages, SAR tables 4-8, read-out: Intracellular Mtb IC50) [µM] | IC50 (M. tuberculosis [3]; Mycobacterium tuberculosis, RAW264.7, read-out: Intracellular Mtb IC50, in RAW264.7 macrophages, SAR tables 4-8) [µM] | Intracellular RAW TC50 (RAW264.7 cells; listed as 17) [µM] | ratio of TC50glu/TC50gal (HepG2 cells; HepG2, glucose vs galactose)
O=C(CSc1ccccn1)Nc1ccc(F)c(F)c1 [TPN-0006203] | > 100 | > 100 | >100 ^b µM | > 20 | good intracellular activity | 7.8 ± 1.6 | – | – | – | – | – | – | – | – | – | – | –
CCc1ccc(OCC(=O)Nc2cccc3c2C(=O)OC3)cc1 [TPN-0006204] | 47 ± 17 | 59 ± 10 | >100 ^a µM | > 20 | – | 10 ± 0.5 | 47 ± 17 ^e µM | 59 ± 10 ^d µM | >100 ^b µM | > 20 | > 20 | 11 ± 0.5 | – | – | – | – | –
O=C(CSc1ccccc1)Nc1ccc(Br)cc1 [TPN-0006205] | > 100 | > 100 | 57 ± 24 ^c µM | > 20 | good intracellular activity | 1.4 ± 0.6 | >100 ^c µM | >100 ^e µM | 57 ± 23 ^c µM | > 20 | > 20 | 1.4 ± 0.64 | 40 | – | – | – | –
Cc1ccc(OCC(=O)Nc2ccc(N3CCCCC3)c(Cl)c2)cc1 [TPN-0006206] | > 100 | > 100 | 57 ± 20 ^c µM | > 20 | – | – | >100 ^b µM | >100 ^b µM | 57 ± 20 ^b µM | > 20 | > 20 | – | – | – | – | – | –
O=C(COc1ccc(Cl)cc1)Nc1ccc(N2CCCCC2)c(Cl)c1 [TPN-0006209] | > 100 | > 100 | 68 ± 0.5 ^b µM | > 20 | – | – | >100 ^b µM | >100 ^b µM | 68 ± 0.50 ^b µM | > 20 | > 20 | – | – | – | – | – | –
O=C(COc1ccc2ccccc2c1)Nc1ccncc1 [TPN-0006212] | 61 ± 4 | > 100 | >100 ^b µM | > 20 | – | 8.2 ± 1.7 | – | – | – | – | – | – | – | – | – | – | –
Cc1cc(OCC(=O)N2CCC(C)CC2)ccc1Br [TPN-0006213] | 55 ± 5 | 93 ± 3.5 | 75 ± 16 ^b µM | > 20 | – | 6.6 ± 1.6 | – | – | – | – | – | – | – | – | – | – | –
O=C(COc1ccc(Br)cc1)N1CCN(c2ccccc2F)CC1 [TPN-0006215] | 57 ± 3 | 96 ± 2.5 | 60 ± 27 ^b µM | > 20 | – | 12 ± 1.6 | – | – | – | – | – | – | – | – | – | – | –
COCc1cc(C)nc2sc(C(=O)Nc3cccc(Cl)c3)c(N)c12 [TPN-0073022] | 64 | 51 | 15 ± 9 ^b µM | > 20 | not active | > 100 | – | – | – | – | – | – | – | – | – | – | –
COCc1cc(C)nc2sc(C(=O)c3ccccc3)c(N)c12 [TPN-0073023] | 49 | 68 ± 1 | 67 ± 18 ^d µM | > 20 | – | 17 ± 6.5 | – | – | – | – | – | – | – | – | – | – | –
Nc1c(C(=O)N2CCCCC2)sc2nc3c(cc12)CCCC3 [TPN-0073024] | > 100 | > 100 | >100 ^b µM | > 20 | – | 62 ± 31 | – | – | – | – | – | – | – | – | – | – | –
CCN(CC)C(=O)c1sc2nc(-c3ccccc3)ccc2c1N [TPN-0073025] | 42 | 61 ± 48 | 30 ± 6.6 ^f µM | > 20 | weak activity | < 10 | – | – | – | – | – | – | – | 9 ± 6.6 | – | – | –
Nc1c(C(=O)c2ccc(F)cc2)sc2nc(-c3ccccc3)cc(-c3ccccc3)c12 [TPN-0073026] | > 100 | > 100 | >100 ^a µM | > 20 | not active | > 100 | – | – | – | – | – | – | – | – | – | – | –
Nc1c(C(=O)Nc2nccs2)sc2nc3c(cc12)CCC3 [TPN-0073030] | > 100 | > 100 | >100 ^c µM | > 20 | – | – | – | – | – | – | – | – | – | – | 1.1 | – | –
O=C(Nc1ccc(C(F)(F)F)cc1)Nc1cccc(Cl)c1 [TPN-0073070] | 5.5 | 5.6 | 1.8 ± 0.5 ^b µM | 15 | – | 0.7 ± 0.2 | – | – | – | – | – | – | – | – | – | 1.8 | –
Cc1sc(NC(=O)c2ccc(OC(C)C)cc2)c(C(N)=O)c1C [TPN-0073559] | 41 ± 11 | 49 ± 8.5 | 50 ± 24 ^d µM | > 20 | – | – | 41 ± 11 ^c µM | 49 ± 8.5 ^c µM | 50 ± 24 ^d µM | > 20 | > 20 | – | – | – | – | – | –
Cc1c(Cc2ccccc2)sc(NC(=O)c2ccccc2Cl)c1C(N)=O [TPN-0073560] | 42 ± 3.3 | > 100 | 23 ± 4.7 ^d µM | > 20 | – | – | 42 ± 3.3 ^c µM | >100 ^b µM | 23 ± 4.7 ^d µM | > 20 | > 20 | – | – | – | – | – | ~4
OCc1cn(-c2ccccc2)nc1-c1ccc(Br)cc1 [TPN-0073563] | 35 ± 3.7 | 34 | 28 ± 7.0 ^e µM | – | – | 4.3 ± 1.5 | 34 ± 1.9 ^c µM | 34 ± 0 ^c µM | 28 ± 7.0 ^e µM | – | – | 4.7 ± 1.1 | – | – | – | – | –
OCc1cn(-c2ccc(F)cc2)nc1-c1ccc(Cl)cc1 [TPN-0073583] | 57 ± 28 | 66 ± 29 | >100 ^d µM | > 20 | – | 5.8 ± 0.4 | – | – | – | – | – | – | – | – | – | – | –
